The values that follow come from patent US12642786B2, “Methods, compositions and kits for treating multiple sclerosis and other disorders” (The Johns Hopkins University, priority 2018, dated 2026).

Data set [1] deals with EAE (MOG35-55 immunized mice). The data set is described as follows: EAE prevention paradigm, clinical scoring. In kind it is in vivo, C57BL/6J mice. Conditions: 30 μg/kg i.p. 3 d per week from day of MOG35-55 immunization (day 0). The text has this:
Experimental autoimmune encephalomyelitis (EAE) is an experimental animal model that recapitulates some aspects of MS. In the active-induction model of mouse EAE, mice are immunized with a peptide derived from myelin oligodendrocyte glycoprotein (MOG35-55), resulting in robust CNS inflammation causing demyelination, axonal injury, and motor weakness/paralysis.
(§1) Active EAE was induced in 8-12 wk-old female C57BL/6J mice that had been allowed to acclimatize to the animal facility for at least 1 wk. MOG35-55 peptide dissolved in PBS at a concentration of 2 mg/mL was mixed 1:1 with complete Freund's adjuvant to make an emulsion. On day 0, mice were immunized by injecting 50 μL of the emulsion s.c. into each of two sites on the lateral abdomen. In addition, on day 0 and again on day 2, mice were injected intraperitoneally with 250 ng pertussis toxin. Mice were weighed and scored beginning on day 7 post-immunization. Scoring was performed in a blinded manner according to the following scale:
Bryo-1 was prepared by initially dissolving in 100% ethanol and then further diluting to 20% ethanol and 1% DMSO in PBS. The final concentration of bryo-1 was […] Mice were treated by i.p. injection of […] bryo-1 or an equal volume of vehicle control (20% ethanol and 1% DMSO in PBS) 3 d per week (Monday, Wednesday, Friday). […]

In data set [2] the test system is EAE (MOG35-55 immunized mice). The data set is described as follows: EAE, late treatment initiated at day 28 post-immunization, clinical scoring. The format is in vivo, C57BL/6J mice. As for the experimental part:
as §1
Bryo-1 was prepared by initially dissolving in 100% ethanol and then further diluting to 20% ethanol and 1% DMSO in PBS. The final concentration of bryo-1 was […] Mice were treated by i.p. injection of […] bryo-1 or an equal volume of vehicle control (20% ethanol and 1% DMSO in PBS) 3 d per week (Monday, Wednesday, Friday).
In a third set of experiments, mice were randomized and treatment was begun on day 28 post-immunization, more than 10 d after peak disease and once motor deficits had reached a stable plateau.
In another set of mice, to determine whether bryo-1 could reverse established neurologic deficits in EAE, mice were randomized and began treatment on day 28 post-immunization, more than 10 d after peak disease and once motor deficits had reached a stable plateau (FIG. 2C). […] Treatment was continued for just more than 3 wk and discontinued on day 51 post-immunization.

Data set [3] relates to naive CD4+ lymphocytes. Put plainly: Naive CD4+ T cells stimulated with α-CD3/CD28 antibodies, flow cytometry. In kind it is cell-based, C57BL/6J mice. The protocol: For surface marker and intracellular cytokine staining of T cells, the cells were first restimulated with a cell stimulation mixture with protein transport inhibitors (eBioscience, catalog #00-4975-03) for 4 h in cRPMI at 37° C. They then underwent live/dead and surface marker staining as earlier. For intracellular cytokine staining, cells were permeabilized and fixed using either IC Fixation buffer for cytokine analysis (eBioscience, 00-8222-49) or FoxP3 fixation/permeabilization buffer for transcription factor analysis (eBioscience, 00-5521-00) after manufacturer recommended protocol and incubated with specific conjugated antibodies for the specified proteins in permeabilization buffer for 1 h.
Spleens were harvested from 6-10-wk-old female C57BL/6J mice, and single-cell suspensions were generated in FACS buffer by disrupting spleens with the plunger of a syringe over a 70-μm nylon cell strainer (BD Falcon), pelleting cells by centrifugation (500×g for 8 min), and resuspending in fresh FACS buffer. Naive CD4^+ cells were then isolated by negative selection using an isolation kit from STEMCELL Technologies (catalog #19765).
Tissue culture plates were coated with α-CD3 antibody (BD Biosciences) by incubating them with 0.25-1.0 m/mL of antibody diluted in sterile PBS overnight at 4° C. or for 2-4 h at 37° C. The antibody solution was then removed, plates were washed once with sterile PBS, and naive CD4^+ T cells were seeded along with 0.25-1.0 m/mL α-CD28 antibody (BD Biosciences) in the presence or absence of the indicated doses of bryo-1. The cells were cultured for 3 d and then analyzed by flow cytometry.

For data set [4] the following is noted: phase 2 clinical trials in humans; cited from earlier work.
[5] abbreviates: 200 nM, cells stimulated with 0.25 μg/mL of α-CD3 and α-CD28 antibodies, 3 d.

Entries after “also recorded” stand apart in the source; their conditions may differ.

For the molecule `CCC/C=C/C=C/C(=O)OC1/C(=C/C(=O)OC)CC2CC(C(C)O)OC(=O)CC(O)CC3CC(OC(C)=O)C(C)(C)C(O)(CC4C/C(=C/C(=O)OC)CC(/C=C/C(C)(C)C1(O)O2)O4)O3` (centres unmarked) [bryo-1, Bryostatin-1], the “onset of EAE (clinical course)” value in data set [1] is “abolished the onset of EAE”. The “clinical scores after discontinuation vs vehicle-treated group” value in data set [2] (after discontinuation at day 51, followed through day 71) is reported as “remained significantly lower; also recorded: remained below those of vehicle-treated mice”. The “clinical scores throughout the treatment period and for several days after discontinuation” value in data set [2] (treatment day 28 to day 51 post-immunization) was “steadily improved”. Further, in data set [2] (treatment discontinued on day 51 post-immunization), the “time after discontinuing at which neurologic deficits worsened” value is “approximately 1 wk”. For the same molecule, the “time to improvement after treatment initiation” value in data set [2] (treatment started day 28 post-immunization) was “within a week of treatment initiation”. Also, the established motor deficits entry in data set [2] (treatment started day 28 post-immunization, 30 μg/kg i.p. 3 d per week) is “reversed motor deficits”. In data set [3] (setting [5]), the “expression of regulatory T-cell marker FoxP3” value was “increased expression”, the “up-regulation of CD44” value is on record as “inhibited up-regulation” and the “up-regulation of IFNγ” value was “inhibited up-regulation”. Further, the “effects on CD44, IFNγ and FoxP3 with stronger T-cell stimulation” value in data set [3] (of α-CD3/CD28) is reported as “these effects were lost”. Besides, the safety profile entry in data set [4] was “favorable safety profile”.
